# Results as given in PMC10610023, “Nucleoside Analog 2′,3′-Isopropylidene-5-Iodouridine as Novel Efficient Inhibitor of HIV-1” (Pharmaceutics, 2023).
# Read-outs that look alike come from different tables or passages of the source.
# Experiments:
# [1] = system: Jurkat cells; experiment: Cell viability analysis, Trypan blue staining, Jurkat cells; format: cell-based, human
# Method: (§1) In this study, we used Jurkat and CEM-ss (human T-lymphoblastic leukemia) cells cultured in RPMI-1640 medium and HEK293T (human embryonic kidney cells) cells cultured in a DMEM medium. Growth medium was supplemented with 10% FBS (fetal bovine serum), 2 mM L-glutamine, 1mM sodium pyruvate, 100 μg/mL of streptomycin, and 100 units/mL of penicillin (Gibco/Invitrogen Life technologies). Cells were cultured at 37 °C in a humidified atmosphere with 5% CO2.
# (§2) Palbociclib was dissolved in H2O. At 72 h after treatment, cell viability was assessed by staining with a 0.4% Trypan blue solution (Invitrogene Corp., Carlsbad, CA, USA) by counting in a Neubauer chamber. CC50s were calculated by nonlinear regression with variable slope (four parameters) and robust fitting using the GraphPad Prism software v.8.4.3 (GraphPad Software, San Diego, CA, USA).
# [2] = as above; format: cell-based, human; conditions: human, 72 h
# Method: as §1, §2
# [3] = Cell viability analysis, Trypan blue staining, CEM-ss cells; format: cell-based, human; conditions: human, CEM-ss cells, 0–30 μM
# Method: as §1, §2
# [4] = system: CEM-ss cells; experiment: as above; format: cell-based, human; conditions: 72 h, concentrations up to 30 μM
# Method: as §1, §2
# [5] = system: HIV-1 based replication-defective lentiviral particles; experiment: microbe, parasite or virus in culture; format: cell-based; conditions: for EC50: Human immunodeficiency virus 1, Jurkat, 72 h
# [6] = system: HIV-1 based replication-defective lentiviral particles; experiment: microbe, parasite or virus in culture; format: cell-based; conditions: for EC50: Human immunodeficiency virus 1, CEM-SS, 72 h
# [7] = system: Jurkat cells; experiment: Cell cycle analysis, propidium iodide staining, Jurkat cells; format: cell-based, human; conditions: concentrations up to 12 nM
# Method: (§3) Apoptosis was measured by double staining with Annexin V-FITC (Invitrogene, Thermo Scientific, Waltham, MA, USA) and propidium iodide (PI) (Sigma, Cibolo, TX, USA) 72 h after transduction. To measure the distribution of cells in the phases of the cell cycle, Jurkat cells were fixed in ethanol and stained with propidium iodide. All measurements were performed on an LSR Fortessa flow cytometer (BD Biosciences, San Jose, CA, USA). […] Analysis of cell cycle rate was performed with ModFit LT software v.4.1.7 (Verity Software House, Topsham, ME, USA).
# [8] = system: Jurkat cells; experiment: Apoptosis analysis, Annexin V-FITC/PI staining, Jurkat cells; format: cell-based, human; conditions: 72 h, concentrations up to 12 nM
# Method: as §3
# [9] = system: HIV-1 based replication-defective lentiviral particles; experiment: Drug combination analysis Palbociclib with AZT or 2f, VP-GFP transduction of Jurkat cells; format: cell-based; conditions: for inhibition at 0.0029 µM / inhibition at 0.0059 µM / inhibition at 0.0117 µM: Human immunodeficiency virus 1, Jurkat, read-out: Inhibition efficiency, %, Jurkat; for drug interaction with Palbociclib (ZIP synergy): pre-treated with Palbociclib 12 h
# Method: At 48 h post treatment with viral particles encoding marker GFP, the transduction efficiency was measured by flow cytometry (Figure 6E). In both combinations, Palbociclib was used in concentrations of ~3 nM, ~6 nM, or ~12 nM. […] Then, the dose-response matrixes were used to calculate synergy scores using ZIP algorithm (Figure 6F,G).
# [10] = system: HIV-1 based replication-defective lentiviral particles; experiment: Drug combination analysis AZT with 2f, VP-GFP transduction of Jurkat cells
# Method: (§4) In our experiments, we decided not to exceed the concentration of 30 μM of each drug in order to exclude the possible side effects of DMSO; concentration in a well for these experiments was not more than 0.06%. The equivalent concentration of DMSO (0.06%) was used in control samples of cells not treated with drugs. […] At 72 h after transduction, the percentage of eGFP-positive cells was determined by flow cytometry (LSR Fortessa, BD Biosciences, Heidelberg, Germany). […] Analysis of the eGFP positive cells percentage was performed with FlowJo software 10.0.7 (FlowJo LLC, Ashland, OR, USA).
# (§5) For this we used both compounds at the wide range of concentrations.
# (§6) Next, the synergy distribution plots were generated and analyzed using the Synergy Finder v3.0 web source. We used the ZIP model to calculate synergy scores that were used to interpret drug interaction relationships. Scores larger than 10 mean that the interaction between two drugs is synergistic. Scores up to 10 mean that the interaction is likely to be additive.
# [11] = system: HIV-1 based replication-defective lentiviral particles; experiment: Drug combination analysis AZT with 2f, VP-GFP transduction of CEM-ss cells; conditions: AZT and 2f in combination, up to 30 μM each
# Method: as §4, §5, §6
# [12] = 72 h, concentrations up to 30 μM
structure (smiles),measurement,setting,value
"CC1(C)O[C@@H]2[C@H](O1)[C@@H](CO)O[C@H]2n1cc(F)c(=O)[nH]c1=O [2c, 2′,3′-O-isopropylidene-5-fluorouridine]",effect on cell survival,[1]; [12],significant suppressive effect on the survival
same,CC50 at 72 h,[2]; 0–30 μM,7.9 ± 0.6 µM
same,CC50 at 72 h,[3],8.4 ± 2.2 µM
same,effect on cell survival,[4],significant suppressive effect on the survival
"CC1(C)O[C@@H]2[C@H](O1)[C@@H](CO)O[C@H]2n1cc(Cl)c(=O)[nH]c1=O [2d, 2′,3′-O-isopropylidene-5-chlorouridine]",CC50 at 72 h,[2]; 0–30 μM,> 30 µM
same,EC50,[5],> 30 µM
same,CC50 at 72 h,[3],> 30 µM
same,EC50,[6],> 30 µM
CC(=O)c1c(C)c2cnc(Nc3ccc(N4CCNCC4)cn3)nc2n(C2CCCC2)c1=O [Palbociclib],effect on cell survival,[1]; concentrations up to 12 nM,not to affect cell survival
same,CC50 at 72 h,"[2]; Jurkat cells, Palbociclib 0–6 μM",0.141 ± 0.0256 µM
same,effect on cell cycle progression,[7],did not find any effect on cell cycle progression
same,induction of apoptosis,[8],does not cause the induction of apotosis
same,inhibition at 0.0029 µM,"[9]; Palbociclib alone 2.9 nM (2f 0 nM, matrix of panel G)",10.8%
same,inhibition at 0.0029 µM,"[9]; Palbociclib alone 2.9 nM (AZT 0 nM, matrix of panel F)",8.03%
same,inhibition at 0.0059 µM,"[9]; Palbociclib alone 5.9 nM (2f 0 nM, matrix of panel G)",5.66%
same,inhibition at 0.0059 µM,"[9]; Palbociclib alone 5.9 nM (AZT 0 nM, matrix of panel F)",8.75%
same,inhibition at 0.0117 µM,"[9]; Palbociclib alone 11.7 nM (2f 0 nM, matrix of panel G)",3.9%
same,inhibition at 0.0117 µM,"[9]; Palbociclib alone 11.7 nM (AZT 0 nM, matrix of panel F)",0.83%
same,suppressive effect on transduction efficiency of VP-GFP,"[9]; Jurkat, Palbociclib alone, ~3, ~6 or ~12 nM",not more than 10%
"CC1(C)O[C@@H]2[C@H](O1)[C@@H](CO)O[C@H]2n1cc(I)c(=O)[nH]c1=O [2f, 2′,3′-O-isopropylidene-5-ioduridine]",CC50 at 72 h,[2]; 0–30 μM,> 30 µM
same,effect on transduction efficiency of HIV-1 lentiviral particles (VP-GFP),[5],caused the suppression of the transduction efficiency
same,EC50,[5],10.5 ± 1.2 µM
same,suppression of VP-GFP transduction efficiency,"[10]; 2f 12 μM supplemented with AZT 12 μM, compared with 2f alone 30 μM (90%)",same activity
same,"drug interaction (ZIP synergy, SynergyFinder)","[10]; AZT and 2f in combination, up to 30 μM each",do not act synergistically
same,suppression of VP-GFP transduction efficiency,"[10]; compound alone, 12 μM",70%
same,suppression of VP-GFP transduction efficiency,"[10]; compound alone, 30 μM",90%
same,drug interaction with Palbociclib (ZIP synergy),[9]; Jurkat,acts synergistically
same,CC50 at 72 h,[3],> 30 µM
same,"drug interaction (ZIP synergy, SynergyFinder)",[11],do not act synergistically
same,EC50,[6],13.1 ± 1.3 µM
"Cc1cn([C@H]2C[C@H](N=[N+]=[N-])[C@@H](CO)O2)c(=O)[nH]c1=O [AZT, 3′-Azido-2′,3′-dideoxythymidine, reference compound]",effect on cell survival,[1]; [12],did not affect cell survival
same,CC50 at 72 h,"[2]; Jurkat cells, 0–30 μM",> 30 µM
same,EC50,[5],0.4 ± 0.1 µM
same,cells remaining GFP positive (plateau effect),"[5]; Jurkat, from 2 μM up to 30 μM",about 30%
same,drug interaction with Palbociclib (ZIP synergy),[9]; Jurkat,no synergistic action
same,CC50 at 72 h,[3],> 30 µM
same,effect on cell survival,[4],did not affect cell survival
same,cells remaining GFP positive (plateau effect),"[6]; CEM-ss, from 2 μM up to 30 μM",about 20%
same,EC50,[6],0.0122 ± 0.0114 µM
"Cc1cn([C@@H]2O[C@H](CO)[C@H]3OC(C)(C)O[C@H]32)c(=O)[nH]c1=O [2b, 2′,3′-O-isopropylidene-5-methyluridine]",CC50 at 72 h,[2]; 0–30 μM,> 30 µM
same,EC50,[5],> 30 µM
same,CC50 at 72 h,[3],> 30 µM
same,EC50,[6],> 30 µM
"CC1(C)O[C@@H]2[C@H](O1)[C@@H](CO)O[C@H]2n1cc(Br)c(=O)[nH]c1=O [2e, 2′,3′-O-isopropylidene-5-bromouridine]",CC50 at 72 h,[2]; 0–30 μM,> 30 µM
same,EC50,[5],> 30 µM
same,CC50 at 72 h,[3],> 30 µM
same,EC50,[6],> 30 µM
"CC1(C)O[C@@H]2[C@H](O1)[C@@H](CO)O[C@H]2n1ccc(=O)[nH]c1=O [2a, 2′,3′-O-isopropylideneuridine]",CC50 at 72 h,[2]; 0–30 μM,> 30 µM
same,EC50,[5],> 30 µM
same,CC50 at 72 h,[3],> 30 µM
same,EC50,[6],> 30 µM
